Measurements from patent US7074789B2, “Kinase inhibitors” (Amgen Inc., priority 1999, dated 2006).
Read-outs that look alike come from different tables or passages of the source.

Assays:
Assay type in all cases: biochemical
Itk = target: T1, Itk (Homo sapiens, UniProt Q08881); test: Kinase inhibition assay (33P transfer), Itk; conditions: read-out: Itk-1
T1 construct: Kinases are expressed as either kinase domains or full length constructs; made in house
T1 sequence (Q08881 1-620): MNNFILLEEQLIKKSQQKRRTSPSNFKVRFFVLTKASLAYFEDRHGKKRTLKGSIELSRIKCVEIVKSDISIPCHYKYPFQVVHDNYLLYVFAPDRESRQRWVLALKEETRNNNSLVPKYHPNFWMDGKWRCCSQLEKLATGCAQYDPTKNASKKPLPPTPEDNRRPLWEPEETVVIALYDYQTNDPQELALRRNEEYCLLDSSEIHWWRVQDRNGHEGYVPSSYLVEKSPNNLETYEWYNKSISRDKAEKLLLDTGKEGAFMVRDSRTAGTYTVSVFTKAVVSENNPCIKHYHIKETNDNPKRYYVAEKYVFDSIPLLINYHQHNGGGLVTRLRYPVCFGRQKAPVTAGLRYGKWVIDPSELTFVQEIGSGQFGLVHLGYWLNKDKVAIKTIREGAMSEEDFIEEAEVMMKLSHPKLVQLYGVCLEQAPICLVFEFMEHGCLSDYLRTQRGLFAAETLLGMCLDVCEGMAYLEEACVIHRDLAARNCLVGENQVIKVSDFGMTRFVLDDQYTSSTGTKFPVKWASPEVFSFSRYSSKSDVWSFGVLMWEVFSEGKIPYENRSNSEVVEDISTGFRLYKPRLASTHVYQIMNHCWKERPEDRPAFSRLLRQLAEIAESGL
How it was run: (§1)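 IC50: inhibitor concentration lowering 33P incorporation into immobilised substrate by 50%. Label transferred from ATP to poly(Glu,Tyr) 4:1 or poly(Arg,Ser) 3:1 is measured after a 0.5% phosphoric acid wash by liquid scintillation.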

Zap-70 = target: T2, Zap-70 (Homo sapiens, UniProt P43403); test: Kinase inhibition assay (33P transfer), Zap-70; conditions: read-out: Zap-1
T2 construct: Kinases are expressed as either kinase domains or full length constructs; made in house
T2 sequence (P43403 1-619): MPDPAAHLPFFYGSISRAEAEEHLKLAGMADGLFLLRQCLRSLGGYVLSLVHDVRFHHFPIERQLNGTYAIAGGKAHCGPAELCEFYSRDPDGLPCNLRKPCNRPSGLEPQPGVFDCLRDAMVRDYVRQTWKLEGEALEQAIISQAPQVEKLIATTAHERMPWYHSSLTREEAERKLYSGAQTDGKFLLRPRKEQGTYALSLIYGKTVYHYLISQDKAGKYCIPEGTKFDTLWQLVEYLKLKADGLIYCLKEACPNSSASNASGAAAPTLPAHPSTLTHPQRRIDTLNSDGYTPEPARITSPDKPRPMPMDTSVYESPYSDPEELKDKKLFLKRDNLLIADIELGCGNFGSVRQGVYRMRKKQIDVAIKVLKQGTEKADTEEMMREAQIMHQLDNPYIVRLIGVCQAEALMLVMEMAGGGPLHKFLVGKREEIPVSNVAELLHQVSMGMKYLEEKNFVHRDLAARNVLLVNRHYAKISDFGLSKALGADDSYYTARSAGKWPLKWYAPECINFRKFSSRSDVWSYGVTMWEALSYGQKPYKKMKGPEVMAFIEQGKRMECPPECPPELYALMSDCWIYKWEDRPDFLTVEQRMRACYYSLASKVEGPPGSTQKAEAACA
How it was run: (§2)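 Recombinant kinase-domain or full-length fusion proteins (GST or His tag) served as enzyme. Substrate poly(Glu,Tyr) 4:1 or poly(Arg,Ser) 3:1 was bound to the plate; transferred 33P was read by liquid scintillation following acid washing.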

EGFR = target: T3, EGFR (Homo sapiens, UniProt P00533); test: Kinase inhibition assay (33P transfer), EGFR; conditions: Table 2, kinase inhibition class; read-out: EGFR-1
T3 construct: Kinases are expressed as either kinase domains or full length constructs; made in house
How it was run: as §1

Kdr = target: T4, Kdr (Homo sapiens, UniProt P35968); test: Kinase inhibition assay (33P transfer), Kdr; conditions: read-out: KDR-1
T4 construct: Kinases are expressed as either kinase domains or full length constructs; made in house
T4 sequence (P35968 20-1356, species assumed): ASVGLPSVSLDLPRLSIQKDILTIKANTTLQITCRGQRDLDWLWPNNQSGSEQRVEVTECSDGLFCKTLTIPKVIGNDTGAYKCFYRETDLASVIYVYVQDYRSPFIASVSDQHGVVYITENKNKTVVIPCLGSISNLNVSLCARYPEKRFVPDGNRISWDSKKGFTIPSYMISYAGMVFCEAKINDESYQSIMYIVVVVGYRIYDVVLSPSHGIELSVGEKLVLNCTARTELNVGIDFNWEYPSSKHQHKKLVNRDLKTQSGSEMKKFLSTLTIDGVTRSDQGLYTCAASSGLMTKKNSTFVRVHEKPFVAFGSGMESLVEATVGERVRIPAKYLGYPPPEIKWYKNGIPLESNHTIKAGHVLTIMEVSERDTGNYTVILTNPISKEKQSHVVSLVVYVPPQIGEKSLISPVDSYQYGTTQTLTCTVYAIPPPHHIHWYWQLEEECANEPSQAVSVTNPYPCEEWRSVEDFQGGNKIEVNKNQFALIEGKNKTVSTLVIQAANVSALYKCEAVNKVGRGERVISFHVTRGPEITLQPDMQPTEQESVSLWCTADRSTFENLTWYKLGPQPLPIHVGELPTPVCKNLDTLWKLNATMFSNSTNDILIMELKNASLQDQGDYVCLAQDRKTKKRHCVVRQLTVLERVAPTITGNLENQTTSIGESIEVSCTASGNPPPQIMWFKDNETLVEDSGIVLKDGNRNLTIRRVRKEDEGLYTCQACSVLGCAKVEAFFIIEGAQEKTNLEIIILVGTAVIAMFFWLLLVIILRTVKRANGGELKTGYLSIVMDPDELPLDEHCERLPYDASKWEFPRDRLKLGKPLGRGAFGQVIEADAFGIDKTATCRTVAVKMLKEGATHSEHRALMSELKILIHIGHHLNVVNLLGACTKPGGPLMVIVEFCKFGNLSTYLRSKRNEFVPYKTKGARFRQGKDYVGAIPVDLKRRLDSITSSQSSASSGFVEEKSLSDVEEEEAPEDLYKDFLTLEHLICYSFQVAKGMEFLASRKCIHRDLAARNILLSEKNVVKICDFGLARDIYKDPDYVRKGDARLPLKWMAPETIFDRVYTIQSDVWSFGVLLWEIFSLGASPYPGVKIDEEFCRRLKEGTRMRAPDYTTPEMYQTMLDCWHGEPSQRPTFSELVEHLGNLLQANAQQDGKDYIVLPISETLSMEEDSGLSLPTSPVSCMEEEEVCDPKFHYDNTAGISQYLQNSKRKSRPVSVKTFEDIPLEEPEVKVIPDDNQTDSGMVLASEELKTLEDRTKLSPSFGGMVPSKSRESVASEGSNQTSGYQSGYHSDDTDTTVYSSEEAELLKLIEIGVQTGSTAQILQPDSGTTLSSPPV
How it was run: as §2

Lck = target: T5, Lck (Homo sapiens, UniProt P06239); test: Kinase inhibition assay (33P transfer), Lck; conditions: read-out: Lck-1
T5 construct: Kinases are expressed as either kinase domains or full length constructs; made in house
T5 sequence (P06239 whole entry, species assumed, the tested form may be a part): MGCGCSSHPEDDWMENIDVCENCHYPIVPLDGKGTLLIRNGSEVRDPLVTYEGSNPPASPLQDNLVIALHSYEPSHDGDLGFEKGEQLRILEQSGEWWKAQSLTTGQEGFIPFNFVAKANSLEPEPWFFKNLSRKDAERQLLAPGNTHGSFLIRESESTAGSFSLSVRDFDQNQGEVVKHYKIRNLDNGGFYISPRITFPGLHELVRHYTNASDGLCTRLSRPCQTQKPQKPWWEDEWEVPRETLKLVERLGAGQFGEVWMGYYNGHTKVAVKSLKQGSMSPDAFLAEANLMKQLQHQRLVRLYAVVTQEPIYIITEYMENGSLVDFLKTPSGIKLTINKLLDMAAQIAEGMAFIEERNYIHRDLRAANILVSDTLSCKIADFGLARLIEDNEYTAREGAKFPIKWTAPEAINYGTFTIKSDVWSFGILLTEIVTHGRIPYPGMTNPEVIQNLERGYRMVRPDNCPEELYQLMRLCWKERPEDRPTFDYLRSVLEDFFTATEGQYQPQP
How it was run: as §2

c-Met = target: T6, c-Met (Homo sapiens, UniProt P08581); test: Kinase inhibition assay (33P transfer), c-Met; conditions: Table 2, kinase inhibition class; read-out: Met-1
T6 construct: Kinases are expressed as either kinase domains or full length constructs; made in house
T6 sequence (P08581 25-1390): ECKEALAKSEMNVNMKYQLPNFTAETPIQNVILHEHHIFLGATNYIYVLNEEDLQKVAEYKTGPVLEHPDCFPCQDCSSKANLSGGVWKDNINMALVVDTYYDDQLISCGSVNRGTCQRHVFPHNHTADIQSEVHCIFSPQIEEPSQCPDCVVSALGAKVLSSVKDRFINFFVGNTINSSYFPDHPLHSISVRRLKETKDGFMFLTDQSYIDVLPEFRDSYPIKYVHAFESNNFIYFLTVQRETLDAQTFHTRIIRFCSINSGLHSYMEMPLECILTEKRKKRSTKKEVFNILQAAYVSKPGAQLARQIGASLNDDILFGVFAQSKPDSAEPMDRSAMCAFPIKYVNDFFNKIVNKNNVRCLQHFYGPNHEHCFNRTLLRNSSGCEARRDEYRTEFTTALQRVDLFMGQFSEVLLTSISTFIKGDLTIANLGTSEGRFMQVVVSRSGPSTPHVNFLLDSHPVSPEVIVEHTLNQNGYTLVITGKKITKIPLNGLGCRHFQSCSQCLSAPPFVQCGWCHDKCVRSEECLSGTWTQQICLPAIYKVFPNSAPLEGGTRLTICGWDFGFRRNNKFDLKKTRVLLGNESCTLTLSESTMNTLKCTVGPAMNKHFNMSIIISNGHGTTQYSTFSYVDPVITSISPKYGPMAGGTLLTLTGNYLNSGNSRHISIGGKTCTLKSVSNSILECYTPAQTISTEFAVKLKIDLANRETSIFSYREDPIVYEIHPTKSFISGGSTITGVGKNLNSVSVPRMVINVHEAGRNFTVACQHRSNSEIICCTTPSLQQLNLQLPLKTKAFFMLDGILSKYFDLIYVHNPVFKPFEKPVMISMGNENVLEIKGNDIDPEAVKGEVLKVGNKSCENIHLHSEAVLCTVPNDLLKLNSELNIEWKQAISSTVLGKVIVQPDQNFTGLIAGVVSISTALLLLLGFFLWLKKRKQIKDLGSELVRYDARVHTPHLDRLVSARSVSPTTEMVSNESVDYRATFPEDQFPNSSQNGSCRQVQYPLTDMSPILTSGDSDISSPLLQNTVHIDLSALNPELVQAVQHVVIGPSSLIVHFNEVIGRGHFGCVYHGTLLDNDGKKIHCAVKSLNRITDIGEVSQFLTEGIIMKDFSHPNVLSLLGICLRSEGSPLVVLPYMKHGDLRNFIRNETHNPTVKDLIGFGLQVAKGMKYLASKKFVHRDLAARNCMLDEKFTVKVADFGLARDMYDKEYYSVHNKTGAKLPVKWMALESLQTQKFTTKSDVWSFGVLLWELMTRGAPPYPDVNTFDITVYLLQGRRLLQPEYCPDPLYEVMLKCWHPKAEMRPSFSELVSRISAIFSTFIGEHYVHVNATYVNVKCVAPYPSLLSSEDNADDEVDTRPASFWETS
How it was run: as §1

Tek = target: T7, Tek (Homo sapiens, UniProt Q02763); test: Kinase inhibition assay (33P transfer), Tek; conditions: read-out: Tek-1
T7 construct: Kinases are expressed as either kinase domains or full length constructs; made in house
T7 sequence (Q02763 23-1124, species assumed): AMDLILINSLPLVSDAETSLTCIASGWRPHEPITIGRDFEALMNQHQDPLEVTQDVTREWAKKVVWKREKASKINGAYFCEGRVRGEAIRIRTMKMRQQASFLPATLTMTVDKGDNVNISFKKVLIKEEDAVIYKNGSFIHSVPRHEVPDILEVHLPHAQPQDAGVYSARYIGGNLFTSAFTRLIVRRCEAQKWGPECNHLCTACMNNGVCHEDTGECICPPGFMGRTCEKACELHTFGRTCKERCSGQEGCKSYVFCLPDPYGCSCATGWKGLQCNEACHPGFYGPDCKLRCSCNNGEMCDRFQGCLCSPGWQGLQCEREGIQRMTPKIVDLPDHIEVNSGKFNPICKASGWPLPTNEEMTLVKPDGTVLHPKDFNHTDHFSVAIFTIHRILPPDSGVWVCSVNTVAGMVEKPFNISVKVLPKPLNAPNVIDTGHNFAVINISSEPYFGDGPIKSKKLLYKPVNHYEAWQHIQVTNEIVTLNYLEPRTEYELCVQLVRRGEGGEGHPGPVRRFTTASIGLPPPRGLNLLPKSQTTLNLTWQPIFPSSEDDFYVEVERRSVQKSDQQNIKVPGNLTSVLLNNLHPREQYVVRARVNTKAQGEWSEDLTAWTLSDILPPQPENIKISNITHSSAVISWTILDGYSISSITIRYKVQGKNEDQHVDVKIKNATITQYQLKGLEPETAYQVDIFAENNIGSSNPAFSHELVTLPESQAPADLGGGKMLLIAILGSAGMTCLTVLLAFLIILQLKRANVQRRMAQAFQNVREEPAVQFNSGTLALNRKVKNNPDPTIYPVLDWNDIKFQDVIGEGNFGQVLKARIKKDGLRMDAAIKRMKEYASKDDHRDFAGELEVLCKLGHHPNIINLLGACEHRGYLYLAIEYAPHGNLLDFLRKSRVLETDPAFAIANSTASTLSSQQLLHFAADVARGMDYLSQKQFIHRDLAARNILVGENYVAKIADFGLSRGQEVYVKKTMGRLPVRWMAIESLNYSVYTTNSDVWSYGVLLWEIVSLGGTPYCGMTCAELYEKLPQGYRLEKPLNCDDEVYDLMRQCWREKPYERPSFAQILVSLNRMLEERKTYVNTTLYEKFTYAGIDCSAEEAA
Source text: The inhibitor compounds described herein are screened in the following manner. Kinases suitable for use in the following protocol to determine kinase activity of the compounds described herein include, -but are not limited to: Lck, Lyn, Src, Fyn, Syk, Zap-70, Itk, Tec, Btk, EGFR, ErbB2, Kdr, Flt-1, Flt-3, Tek, c-Met, InsR, and AKT.
Kinases are expressed as either kinase domains or full length constructs fused to glutathione S-transferase (GST) or polyHistidine tagged fusion proteins in either E. colior Baculovirus-High Five expression systems. They are purified to near homogeneity by affinity chromatography essentially as previously described (Lehr et al., 1996; Gish et al., 1995). In some instances, kinases are co-expressed or mixed with purified or partially purified regulatory polypeptides prior to measurement of activity.
Kinase activity and inhibition are measured essentially by established protocols (Braunwalder et al., 1996). Briefly, The transfer of ^33PO4 from ATP to the synthetic substrates poly(Glu, Tyr) 4:1 or poly(Arg, Ser) 3:1 attached to the bioactive surface of microtiter plates serves as the basis to evaluate enzyme activity. After an incubation period, the amount of phosphate transferred is measured by first washing the plate with 0.5% phosphoric acid, adding liquid scintillant, and then counting in a liquid scintillation detector. The IC50 is determined by the concentration of compound that causes a 50% reduction in the amount of […] incorporated onto the substrate bound to the plate.

AKT = target: T8, AKT (Homo sapiens, UniProt Q9Y243); test: Kinase inhibition assay (33P transfer), AKT; conditions: Table 2, kinase inhibition class; read-out: AKT3-1
T8 construct: Kinases are expressed as either kinase domains or full length constructs; made in house
T8 sequence (Q9Y243 whole entry, the tested form may be a part): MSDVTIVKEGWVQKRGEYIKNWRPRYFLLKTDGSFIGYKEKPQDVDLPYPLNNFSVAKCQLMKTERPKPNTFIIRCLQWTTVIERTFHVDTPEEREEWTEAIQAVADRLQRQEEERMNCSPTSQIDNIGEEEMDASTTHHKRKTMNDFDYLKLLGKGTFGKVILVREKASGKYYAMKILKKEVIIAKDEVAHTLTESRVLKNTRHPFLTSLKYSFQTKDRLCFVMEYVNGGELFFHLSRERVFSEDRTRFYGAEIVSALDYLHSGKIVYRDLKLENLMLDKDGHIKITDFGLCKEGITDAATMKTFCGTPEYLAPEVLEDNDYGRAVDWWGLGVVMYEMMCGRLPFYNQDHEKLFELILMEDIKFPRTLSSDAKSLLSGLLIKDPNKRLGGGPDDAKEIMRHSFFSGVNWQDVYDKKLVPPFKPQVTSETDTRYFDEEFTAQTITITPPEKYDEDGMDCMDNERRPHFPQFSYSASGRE
How it was run: as §2

Row | SMILES | IC50 (Itk) [µM] | IC50 (Zap-70) [µM] | IC50 (EGFR) [µM] | IC50 (Kdr) [µM] | IC50 (Lck) [µM] | IC50 (c-Met) [µM] | IC50 (Tek) [µM] | IC50 (AKT) [µM] | IC50 (Itk; Table 3) [µM] | IC50 (Zap-70; Table 3) [µM] | IC50 (Kdr; Table 3) [µM] | IC50 (Lck; Table 3) [µM]
1 | COc1cc(Nc2ncnc(-n3c(N[C@H](CO)c4ccccc4)nc4ccccc43)n2)cc(OC)c1OC [Compound 1035] | > 8.76 | > 8.76 | > 8.76 | < 0.779 | > 8.76 | > 8.76 | > 8.76 | > 8.76 | – | – | – | –
2 | COc1cc(Nc2ncnc(N)n2)cc(OC)c1OC [Compound 1024, N-(3,4,5-trimethoxy-phenyl)-[1,3,5]triazine-2,4-diamine] | – | – | > 16.2 | – | – | > 16.2 | > 16.2 | – | > 16.2 | > 16.2 | > 16.2 | > 16.2
3 | CCOC(=O)Cc1ccc(Nc2ncnc(Nc3cc(-c4ccco4)n[nH]3)n2)cc1 [Compound 432] | – | – | 0.987 to 5.92 | – | – | 0.987 to 5.92 | > 11.1 | > 11.1 | 8.63 to 11.1 | > 11.1 | 0.987 to 5.92 | > 11.1
4 | O=c1[nH]c2ccccc2n1-c1ncnc(Nc2ccc(NS(=O)(=O)c3ccc([N+](=O)[O-])cc3)cc2)n1 [Compound 422] | – | – | 0.793 to 4.76 | – | – | > 8.92 | 6.94 to 8.92 | 0.793 to 4.76 | > 8.92 | > 8.92 | 0.793 to 4.76 | > 8.92
5 | COc1cc(Nc2ncnc(-c3cccnc3NCCCN)n2)cc(OC)c1OC [Compound 1078] | > 10.9 | > 10.9 | > 10.9 | 0.972 to 5.83 | > 10.9 | > 10.9 | > 10.9 | > 10.9 | – | – | – | –
6 | COc1cc(Nc2ncnc(Nc3nccs3)n2)cc(OC)c1OC [Compound 442] | – | – | > 12.5 | – | – | > 12.5 | > 12.5 | > 12.5 | > 12.5 | > 12.5 | 6.66 to 9.71 | > 12.5
7 | Nc1ncnc(Nc2ccc(C3CCCCC3)cc2)n1 [Compound 1021] | – | – | > 16.7 | – | – | > 16.7 | > 16.7 | – | > 16.7 | > 16.7 | > 16.7 | > 16.7
8 | CC(C)(C)c1cc(Nc2ncnc(Nc3cccc(CO)c3)n2)[nH]n1 [Compound 499] | 1.18 to 7.07 | > 13.3 | 1.18 to 7.07 | 1.18 to 7.07 | 1.18 to 7.07 | 1.18 to 7.07 | – | > 13.3 | – | – | – | –
9 | COc1cc(Nc2ncnc(-c3ccc(N4CCNCC4)nc3)n2)cc(OC)c1OC [Compound 436] | – | – | 8.26 to 10.6 | – | – | > 10.6 | – | > 10.6 | > 10.6 | > 10.6 | 8.26 to 10.6 | > 10.6
10 | O=C(Nc1ccc(Nc2ncnc(-n3c(=O)[nH]c4ccccc43)n2)cc1)O[C@@H]1CCOC1 [Compound 454] | – | – | > 10.4 | – | – | 5.54 to 8.08 | – | > 10.4 | > 10.4 | > 10.4 | 0.923 to 5.54 | 0.923 to 5.54
11 | COc1cc(Nc2ncnc(-n3c(=O)sc4cc(Br)ccc43)n2)cc(OC)c1OC [Compound 426] | – | – | > 9.18 | – | – | > 9.18 | – | > 9.18 | > 9.18 | > 9.18 | > 9.18 | > 9.18
12 | CC(C)(C)OC(=O)NCc1cccc(Nc2ncnc(Nc3cc(C(C)(C)C)n[nH]3)n2)c1 [Compound 987] | > 10.3 | > 10.3 | > 10.3 | > 10.3 | 0.912 to 5.47 | > 10.3 | – | > 10.3 | – | – | – | –
13 | O=c1[nH]c2ccccc2n1-c1ncnc(Nc2cccc(S(=O)(=O)CCO)c2)n1 [Compound 681] | > 10.9 | > 10.9 | > 10.9 | 0.97 to 5.82 | > 10.9 | > 10.9 | – | > 10.9 | – | – | – | –
14 | CC(=O)Nc1ccc(Nc2ncnc(-n3c(N)nc4ccccc43)n2)cc1 [Compound 475] | 1.11 to 6.66 | > 12.5 | > 12.5 | < 1.11 | 1.11 to 6.66 | 6.66 to 9.71 | – | > 12.5 | – | – | – | –
15 | N#Cc1ccc(Nc2ncnc(-n3c(=O)[nH]c4ccccc43)n2)cc1 [Compound 485] | > 13.7 | > 13.7 | > 13.7 | 1.21 to 7.29 | > 13.7 | > 13.7 | – | > 13.7 | – | – | – | –
16 | COc1cc(Nc2ncnc(-n3c(=O)[nH]c4ccccc43)n2)cc(OCCN2CCOCC2)c1OC [Compound 1039] | > 9.12 | > 9.12 | > 9.12 | < 0.81 | 0.81 to 4.86 | > 9.12 | – | > 9.12 | – | – | – | –
17 | O=c1[nH]c2ccccc2n1-c1ncnc(Nc2cccc3ccccc23)n1 [Compound 683] | > 12.7 | > 12.7 | > 12.7 | > 12.7 | > 12.7 | > 12.7 | – | > 12.7 | – | – | – | –
18 | O=c1[nH]c2ccccc2n1-c1ncnc(Nc2cccc(OC(F)(F)F)c2)n1 [Compound 461] | – | – | > 11.6 | – | – | > 11.6 | – | > 11.6 | > 11.6 | > 11.6 | > 11.6 | > 11.6
19 | O=c1[nH]c2ccccc2n1-c1ncnc(Nc2cc(Cl)cc(Cl)c2)n1 [Compound 503] | > 12.1 | 9.38 to 12.1 | > 12.1 | > 12.1 | 9.38 to 12.1 | > 12.1 | – | > 12.1 | – | – | – | –
20 | COc1cc(Nc2ncnc(-c3cccnc3NCc3ccccn3)n2)cc(OC)c1OC [Compound 1080] | > 10.1 | > 10.1 | > 10.1 | < 0.898 | 5.39 to 7.86 | > 10.1 | – | > 10.1 | – | – | – | –
21 | O=c1[nH]c2ccccc2n1-c1ncnc(Nc2ccc(O)cc2)n1 [Compound 682] | 10.9 to 14 | > 14 | 1.25 to 7.49 | 1.25 to 7.49 | 7.49 to 10.9 | 7.49 to 10.9 | – | > 14 | – | – | – | –
